{"source": "ChEMBL document CHEMBL4303773", "about": "(Nature, 2020)", "key": {"Vero C1008": {"system": "Vero C1008", "experiment": "Cytotoxicity of compound against Vero E6 cells by MTT assay.", "details": "chlorocebus sabaeus, vero c1008"}, "[1]": {"target": "T1, Alpha-2C adrenergic receptor (Homo sapiens, UniProt P18825)", "T1 sequence (P18825 whole entry)": "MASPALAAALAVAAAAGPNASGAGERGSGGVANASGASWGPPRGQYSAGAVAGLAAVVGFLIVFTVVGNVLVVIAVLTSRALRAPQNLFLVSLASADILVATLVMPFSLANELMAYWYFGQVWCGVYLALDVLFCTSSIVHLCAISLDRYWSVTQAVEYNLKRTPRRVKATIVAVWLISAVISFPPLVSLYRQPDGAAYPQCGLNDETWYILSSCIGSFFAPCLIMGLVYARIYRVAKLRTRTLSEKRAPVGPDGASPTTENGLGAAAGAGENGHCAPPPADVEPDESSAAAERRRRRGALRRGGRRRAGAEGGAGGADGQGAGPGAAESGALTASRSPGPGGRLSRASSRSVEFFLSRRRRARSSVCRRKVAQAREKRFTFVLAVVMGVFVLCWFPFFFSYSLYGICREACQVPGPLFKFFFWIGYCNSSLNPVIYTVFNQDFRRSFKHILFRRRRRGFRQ", "description": "Activity of compound against Alpha 2C (ADRA2C) adrenergic receptor by displacement of [3H]-rauwolscine"}, "[2]": {"target": "Sigma intracellular receptor 2 (Homo sapiens, UniProt Q5BJF2)", "sequence (Q5BJF2 whole entry)": "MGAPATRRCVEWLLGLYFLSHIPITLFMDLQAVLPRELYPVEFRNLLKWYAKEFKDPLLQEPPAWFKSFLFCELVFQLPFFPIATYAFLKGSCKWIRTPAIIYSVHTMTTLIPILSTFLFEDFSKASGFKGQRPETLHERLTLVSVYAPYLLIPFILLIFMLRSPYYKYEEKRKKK", "experiment": "Displacement of [3H]-DTG from the Sigma2 receptor"}, "[3]": {"target": "Sigma non-opioid intracellular receptor 1 (Homo sapiens, UniProt Q99720)", "sequence (Q99720 whole entry)": "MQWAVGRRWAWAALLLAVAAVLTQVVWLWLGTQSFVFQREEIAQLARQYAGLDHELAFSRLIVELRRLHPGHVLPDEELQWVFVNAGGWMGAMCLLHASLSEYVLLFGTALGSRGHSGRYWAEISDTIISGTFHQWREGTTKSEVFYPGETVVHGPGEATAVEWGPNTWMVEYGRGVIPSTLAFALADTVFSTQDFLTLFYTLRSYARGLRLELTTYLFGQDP", "description": "Displacement of [3H]-pentazocin from the Sigma1 receptor"}, "[4]": {"target": "T2, Alpha-2A adrenergic receptor (Homo sapiens, UniProt P08913)", "T2 sequence (P08913 whole entry)": "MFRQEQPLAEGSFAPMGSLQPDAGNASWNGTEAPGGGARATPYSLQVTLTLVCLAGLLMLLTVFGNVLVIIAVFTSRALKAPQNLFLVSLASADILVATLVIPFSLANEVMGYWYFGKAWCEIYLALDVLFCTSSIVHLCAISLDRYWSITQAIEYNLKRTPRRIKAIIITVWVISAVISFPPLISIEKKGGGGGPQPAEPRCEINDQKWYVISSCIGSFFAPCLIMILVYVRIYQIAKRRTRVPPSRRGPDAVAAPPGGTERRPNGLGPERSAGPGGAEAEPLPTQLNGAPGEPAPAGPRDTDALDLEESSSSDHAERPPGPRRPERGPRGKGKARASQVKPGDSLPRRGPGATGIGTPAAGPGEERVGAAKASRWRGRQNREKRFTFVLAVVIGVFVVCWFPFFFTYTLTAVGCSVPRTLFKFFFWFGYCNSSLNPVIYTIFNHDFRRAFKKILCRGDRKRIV", "experiment": "Activity of compound against Alpha-2A (ADRA2A) adrenergic receptor by displacement of [3H]-rauwolscine"}, "[5]": {"target": "T3, Alpha-2B adrenergic receptor (Homo sapiens, UniProt P18089)", "T3 sequence (P18089 whole entry)": "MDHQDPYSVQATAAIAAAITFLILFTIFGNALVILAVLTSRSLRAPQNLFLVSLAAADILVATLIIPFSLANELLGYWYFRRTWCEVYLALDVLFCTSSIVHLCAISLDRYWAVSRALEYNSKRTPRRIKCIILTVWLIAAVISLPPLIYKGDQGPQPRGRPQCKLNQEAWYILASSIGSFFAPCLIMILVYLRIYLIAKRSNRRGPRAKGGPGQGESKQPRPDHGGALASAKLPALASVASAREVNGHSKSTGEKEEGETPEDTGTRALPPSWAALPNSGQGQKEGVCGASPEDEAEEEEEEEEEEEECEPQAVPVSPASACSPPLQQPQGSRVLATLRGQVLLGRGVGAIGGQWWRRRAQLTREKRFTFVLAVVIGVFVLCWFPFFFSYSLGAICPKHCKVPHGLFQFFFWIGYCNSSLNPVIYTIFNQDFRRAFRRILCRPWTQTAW"}, "[6]": {"target": "Muscarinic acetylcholine receptor M3 (Homo sapiens, UniProt P20309)", "sequence (P20309 whole entry)": "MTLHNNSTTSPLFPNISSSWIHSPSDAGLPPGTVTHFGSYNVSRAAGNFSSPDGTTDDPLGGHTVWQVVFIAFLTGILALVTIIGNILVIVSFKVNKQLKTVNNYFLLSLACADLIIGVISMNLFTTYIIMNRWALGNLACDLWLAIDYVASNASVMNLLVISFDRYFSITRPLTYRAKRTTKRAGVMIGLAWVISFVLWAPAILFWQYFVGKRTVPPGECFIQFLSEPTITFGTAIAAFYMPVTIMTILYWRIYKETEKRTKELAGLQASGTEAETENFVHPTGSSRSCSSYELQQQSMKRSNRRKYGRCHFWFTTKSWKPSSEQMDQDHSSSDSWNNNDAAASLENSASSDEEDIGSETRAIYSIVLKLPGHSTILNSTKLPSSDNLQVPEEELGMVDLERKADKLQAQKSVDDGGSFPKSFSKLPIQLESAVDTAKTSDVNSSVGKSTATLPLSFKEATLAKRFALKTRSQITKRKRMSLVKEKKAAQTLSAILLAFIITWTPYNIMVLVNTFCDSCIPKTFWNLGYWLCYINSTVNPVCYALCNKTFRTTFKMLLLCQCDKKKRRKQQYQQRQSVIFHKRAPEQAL"}, "[7]": {"target": "T4, Muscarinic acetylcholine receptor M4 (Homo sapiens, UniProt P08173)", "T4 sequence (P08173 whole entry)": "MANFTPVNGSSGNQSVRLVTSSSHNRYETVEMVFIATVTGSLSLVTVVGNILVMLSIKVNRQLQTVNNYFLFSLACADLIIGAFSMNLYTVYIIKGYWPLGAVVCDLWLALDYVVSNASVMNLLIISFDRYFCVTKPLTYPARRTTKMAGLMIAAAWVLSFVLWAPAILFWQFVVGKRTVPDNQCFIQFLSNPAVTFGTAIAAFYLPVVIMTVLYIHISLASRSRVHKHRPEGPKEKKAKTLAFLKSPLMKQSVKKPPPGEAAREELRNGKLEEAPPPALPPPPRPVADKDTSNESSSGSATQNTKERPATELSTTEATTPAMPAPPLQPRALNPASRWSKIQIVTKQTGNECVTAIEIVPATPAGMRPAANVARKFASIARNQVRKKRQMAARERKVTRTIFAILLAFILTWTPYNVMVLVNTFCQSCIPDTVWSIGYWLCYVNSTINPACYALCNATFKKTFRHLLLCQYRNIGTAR", "experiment": "Activity of compound against Muscarinic acetylcholine receptor M4 (CHRM4) by displacement of 3H-QNB"}, "[8]": {"target": "T5, Muscarinic acetylcholine receptor M5 (Homo sapiens, UniProt P08912)", "T5 sequence (P08912 whole entry)": "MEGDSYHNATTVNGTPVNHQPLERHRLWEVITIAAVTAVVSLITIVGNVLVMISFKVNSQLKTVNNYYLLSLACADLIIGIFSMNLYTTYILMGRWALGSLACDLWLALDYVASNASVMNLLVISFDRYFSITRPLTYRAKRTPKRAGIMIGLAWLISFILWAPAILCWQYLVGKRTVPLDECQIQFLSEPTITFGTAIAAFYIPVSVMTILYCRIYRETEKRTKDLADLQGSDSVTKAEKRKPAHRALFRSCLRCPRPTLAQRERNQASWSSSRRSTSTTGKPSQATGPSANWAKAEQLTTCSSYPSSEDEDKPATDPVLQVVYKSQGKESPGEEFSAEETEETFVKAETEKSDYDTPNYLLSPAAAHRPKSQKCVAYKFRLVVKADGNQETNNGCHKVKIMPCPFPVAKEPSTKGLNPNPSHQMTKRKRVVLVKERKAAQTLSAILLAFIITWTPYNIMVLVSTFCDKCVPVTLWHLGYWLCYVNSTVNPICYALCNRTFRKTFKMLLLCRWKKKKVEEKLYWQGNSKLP", "experiment": "Activity of compound against Muscarinic acetylcholine receptor M5 (CHRM5) by displacement of 3H-QNB"}}}
{"molecule": "CCCN1CCC=C(c2cc(-c3ccc(C)cc3)no2)C1", "values": [{"measurement": "pCC50", "setting": "Vero C1008", "result": "~ 2.928"}, {"measurement": "Ki", "setting": "[1]", "result": 10, "unit": "µM"}, {"measurement": "Ki", "setting": "[2]", "result": 794, "unit": "nM"}, {"measurement": "Ki", "setting": "[3]", "result": 2, "unit": "nM"}, {"measurement": "Ki", "setting": "[4]", "result": 8.32, "unit": "µM"}, {"measurement": "Ki", "setting": "[5]", "result": 20.4, "unit": "µM"}, {"measurement": "Ki", "setting": "[6]", "result": 24, "unit": "µM"}, {"measurement": "Ki", "setting": "[7]", "result": 24.5, "unit": "µM"}, {"measurement": "Ki", "setting": "[8]", "result": 28.2, "unit": "µM"}]}
